Measured values reported in patent US7829591B2, “Flavanone compound and uses thereof” (Pokka Corporation, priority 2003, dated 2010).

Legend:
β-carotene fading test = format: biochemical
Protocol: β-carotene will fade due to the reaction of linoleic acid peroxide, which is produced by the autoxidation of linoleic acid, with a double bond in β-carotene. This phenomenon was utilized so as to determine the antioxidant activity of each of Compounds 1 to 4 and the like. That is, first of all, 2 ml of a 200 mg/ml solution of Tween-40 in chloroform, 0.4 ml of a 100 mg/ml solution of linoleic acid in chloroform, and 3 ml of a 0.1 mg/ml solution of β-carotene in chloroform were mixed, and thereafter the solvent was removed by using a nitrogen gas. Subsequently, 100 ml of distilled water was added thereto, and adequately stirred to obtain an emulsion. To 3 ml of this emulsion, ethanol was added to completely dissolve the solute in the solvent. Thereafter, each of Compounds 1 to 4 was dissolved in ethanol so as to prepare a sample solution having a concentration of 1.2 mM. 50 μl of the sample solution was mixed with the above emulsion wherein the solute had been completely dissolved so as to prepare a reaction liquid (or a sample reaction liquid). Then the concentration of each of Compounds 1 to 4 in the reaction liquid was 20 μM. The reaction liquid was incubated at 60° C. for 60 minutes. Then the absorbance of each of the reaction liquid before the incubation and the reaction liquid after the incubation was determined at 470 nm. Furthermore, BHT, α-tocopherol, or eriodictyol was used in place of Compounds 1 to 4 so as to determine the absorbance of the reaction liquid before and after incubation according to a similar procedure to the above-mentioned one. In addition, as a control, a reaction liquid (or a control reaction liquid) wherein no sample solution was contained was prepared so as to determine the absorbance of the reaction liquid before and after incubation according to a similar procedure to the above-mentioned one. The antioxidant activity (%) of each of the materials was calculated using the following calculation formula 2. Incidentally, each of values shown in Table 1 is the average value and standard deviation of values obtained from three runs. (Antioxidant Activity)=[{(Fading Rate of Control)−(Fading Rate of Sample Solution)}/(Fading Rate of Control)]×100 Calculation Formula 2
It should be noted that in the calculation formula 2, “Fading Rate of Control” is the natural logarithm of a value which is acquired by dividing the absorbance of the control reaction liquid before incubation by the absorbance of the control reaction liquid after incubation and further by dividing the resultant value by 60; and “Fading Rate of Sample Solution” is the natural logarithm of a value which is acquired by dividing the absorbance of the sample reaction liquid before incubation by the absorbance of the sample reaction liquid after incubation and further by dividing the resultant value by 60.

[1] = system: Staphylococcus aureus (Sta.); experiment: Antimicrobial activity test with Compounds 1 to 4; format: cell-based
Protocol: (§1) That is, first of all, each of Compounds 1 to 4 was dissolved in 70% ethanol, and thereafter, standard agar media were prepared wherein the concentration of each of Compounds 1 to 4 was adjusted to be 0 ppm, 5 ppm, 10 ppm, 15 ppm, 20 ppm, or 50 ppm. Subsequently, these standard agar media were subjected to autoclave sterilization so as to prepare evaluation media, and each of the biological indicators was inoculated in each of these evaluation media. After the incubation of each of the bacteria, the number of the bacteria per a petri dish (CFU/petri dish) was determined.

[2] = system: Salmonella enteritidis (S. en; NBRC3313); experiment: Antimicrobial activity test with Compounds 1 to 4; format: cell-based
Protocol: as §1

E. coli = experiment: Antimicrobial activity test with Compounds 1 to 4; format: cell-based
Protocol: as §1

Bacillus cereus (B. ce) = experiment: Antimicrobial activity test with Compounds 1 to 4; format: cell-based
Protocol: as §1

SMILES: CC(C)=CCC/C(C)=C/Cc1c([C@@H]2CC(=O)c3c(cc(O)c(CC=C(C)C)c3O)O2)ccc(O)c1O [Compound 4, 5,7,3′,4′-tetrahydroxy-6-(3′″,3′″-dimethylallyl)-2′-C-geranylflavanone]
- Antioxidant Activity (%) from β-carotene Fading Test (β-carotene fading test; 20 μM in reaction liquid, 60° C. for 60 minutes, absorbance 470 nm, average ± SD of three runs): 80.06 ± 0.29%
- antioxidant activity (in words) (β-carotene fading test; comparison from Table 1): about the same high antioxidant activity as that of each of BHT, α-tocopherol, and eriodictyol
- effect on growth and development of Gram-positive bacteria, Sta. (in words) ([1]; 5-50 ppm): high antimicrobial activity
- Number of Bacteria, Sta. ([1]; 5 ppm in standard agar medium, 0 ppm: 470 (Table 3), 202 (Table 4)): 26 CFU/petri dish
- Number of Bacteria, Sta. ([1]; 10 ppm in standard agar medium): 7 CFU/petri dish
- Number of Bacteria, Sta. ([1]; 15 ppm in standard agar medium): 10 CFU/petri dish
- Number of Bacteria, Sta. ([1]; 20 ppm in standard agar medium): 1 CFU/petri dish
- Number of Bacteria, Sta. ([1]; 50 ppm in standard agar medium): 0 CFU/petri dish
- effect on growth and development of S. en (in words) ([2]; 5-50 ppm): antimicrobial activity
- Number of Bacteria, S. en ([2]; 5 ppm in standard agar medium, 0 ppm: >3000 (Table 3), 221 (Table 4)): 249 CFU/petri dish
- Number of Bacteria, S. en ([2]; 10 ppm in standard agar medium): 199 CFU/petri dish
- Number of Bacteria, S. en ([2]; 15 ppm in standard agar medium): 225 CFU/petri dish
- Number of Bacteria, S. en ([2]; 20 ppm in standard agar medium): 132 CFU/petri dish
- Number of Bacteria, S. en ([2]; 50 ppm in standard agar medium): 65 CFU/petri dish
- effect on growth and development of E. coli (in words) (E. coli; 5-50 ppm): high antimicrobial activity
- Number of Bacteria, E. coli (E. coli; 5 ppm in standard agar medium, 0 ppm: >3000 (Table 3), 5 (Table 4)): 6 CFU/petri dish
- Number of Bacteria, E. coli (E. coli; 10 ppm in standard agar medium): 6 CFU/petri dish
- Number of Bacteria, E. coli (E. coli; 15 ppm in standard agar medium): 9 CFU/petri dish
- Number of Bacteria, E. coli (E. coli; 20 ppm in standard agar medium): 6 CFU/petri dish
- Number of Bacteria, E. coli (E. coli; 50 ppm in standard agar medium): 0 CFU/petri dish
- effect on growth and development of spore forming bacteria, B. ce (in words) (Bacillus cereus (B. ce); 5-50 ppm): high antimicrobial activity
- Number of Bacteria, B. ce (Bacillus cereus (B. ce); 5 ppm in standard agar medium, 0 ppm: 13 (Table 3), 183 (Table 4)): 16 CFU/petri dish
- Number of Bacteria, B. ce (Bacillus cereus (B. ce); 10 ppm in standard agar medium): 0 CFU/petri dish
- Number of Bacteria, B. ce (Bacillus cereus (B. ce); 15 ppm in standard agar medium): 0 CFU/petri dish
- Number of Bacteria, B. ce (Bacillus cereus (B. ce); 20 ppm in standard agar medium): 0 CFU/petri dish
- Number of Bacteria, B. ce (Bacillus cereus (B. ce); 50 ppm in standard agar medium): 0 CFU/petri dish
